Laboratory results from the SangsterLogP compilation.

Structure (SMILES) | logP
CCCC(CCC)C(=O)O | 2.57
CCCC(CC(C)=O)C(=O)O (configuration not stated) | 1.31
CCC=C(CCC)C(=O)O | 2.44
CC(C)CCn1cnnn1 | 1.29
CCCCC(CCCC)C(=O)O | 3.34
C/C=C/C(=C\CC)C(=O)O | 2.27
CC1(C(=O)O)CCCCC1 | 2.38

Second part, the compound after the results:

logP | Structure (SMILES)
2.19 | CCC(CC)CC(=O)O
2.3 | CCCCN(CCCC)C(=O)CCC(=O)O
2.31 | O=C(O)CC1CCCCC1
1.9 | CCC(C)(C)C(=O)O
2.01 | CCCCCCCc1nn[nH]n1
